Assay results taken from article PMC9653339, “Revisiting the anticancer properties of phosphane(9-ribosylpurine-6-thiolato)gold(I) complexes and their 9H-purine precursors” (Journal of Biological Inorganic Chemistry, 2022).

Tests used:
518A2 melanoma cells [1] = experiment: ROS assay (NBT); format: cell-based, human; settings: 518A2 cells, 1 µM and 5 µM, 24 h
Protocol: To determine cellular ROS levels, 2,2′-bis(4-nitrophenyl)-5,5′-diphenyl-3,3′-(3,3′-dimethoxy-4,4′-diphenylene) di-tetrazolium chloride (NBT) was used. The assay is based on the reduction of a yellow NBT tetrazolium salt to a blue formazan dye. 518A2 melanoma cells were seeded in 96-well flat bottom microtiter plates (Sarstedt) with 100 µL per well and a cell density of 0.1 × 10^6 cells per mL. The cells were allowed to grow overnight, followed by substance treatment with 11.1 µL of tenfold concentrated test compound dilutions and further incubated for 24 h. Then plates were centrifuged, the medium was discarded and 50 µL per well of NBT solution (0.1% in PBS) was added. The plates were further incubated for 4 h, centrifuged again and the medium was discarded. After that, 50 µL of 2M KOH solution and 65 µL DMSO had been added per well, incubation was continued for 30 min. The absorbances at 630 nm und 405 nm were measured, using a plate reader (Tecan). The background absorbance (405 nm) was subtracted from the formazan signal (630 nm). The resulting absorbance is directly proportional to the reactive oxygen species level. The control value was normalized to 100% ROS level, and accordingly, the viability of cells treated with test compounds was calculated. Means and SD were calculated from at least four independent experiments.

[2] = test system: HCT-116^wt colon carcinoma cells; set-up: method as in Bär et al. [33]; settings: MTT, value marked * ref Bär et al. [33]; cited from earlier work
[3] = test system: HCT-116^p53−/− (p53 knockout mutant) colon carcinoma cells; set-up: method as in Bär et al. [33]; settings: MTT, value marked * ref Bär et al. [33]; cited from earlier work
[4] = test system: HeLa cervix carcinoma cells; set-up: method as in Bär et al. [33]; settings: MTT, value marked * ref Bär et al. [33]; cited from earlier work
518A2 melanoma cells [5] = test system: 518A2 melanoma cells; set-up: method as in Bär et al. [33]; settings: MTT, value marked * ref Bär et al. [33]; cited from earlier work
[6] = test system: human adult dermal fibroblasts HDFa; set-up: method as in Bär et al. [33]; settings: MTT, value marked * ref Bär et al. [33]; cited from earlier work
518A2 melanoma cells [7] = experiment: Inhibition of wound healing (scratch migration assay); format: cell-based, human; settings: 518A2 cells, IC50 concentrations, 0-24 h
Protocol: Cells of melanoma cell line 518A2 were seeded in a volume of 500 µL and at a concentration of 0.1 × 10^6 cells/mL in 24-well plates in triplicate. The plate was incubated (37 °C, 95% humidity, 5% CO2) for two days until a confluent monolayer was formed. A 10 µL pipette tip was used to create a wound in the cell lawn, the wound was rinsed with PBS and the medium was changed to a FBS-reduced one. Pictures were taken at first time point (0 h) right before the addition of substance at 100-fold pre-dilution. The plate was then incubated again in the incubator and photos were taken at several more time points (6, 12, and 24 h) [262626].

[8] = test system: circular plasmid pBR322 DNA; experiment: Electrophoretic mobility shift assay (EMSA); format: binding
Protocol: To distinguish whether the DNA interaction is of an electrostatic or covalent nature, a second DNA interaction assay was conducted. 1.5 µg of circular plasmid pBR322 DNA were incubated in TE buffer (10 mM Tris–Cl, 1 mM EDTA, pH 8.0) with different concentrations of test compounds (final concentrations; 5 µM, 10 µM, 25 µM and 50 µM), whereas a corresponding volume of DMSO was added to the control (0 µM) to a final volume of 20 µL of each sample. Samples ware incubated for 16 h at 37 °C and subjected to 1% agarose gel electrophoresis in 0.5 × TBE buffer (45 mM Tris–Cl, 45 mM boric acid, 1.25 mM EDTA, pH 8.0) for 4 h at 66 V. Afterward, the agarose gel was stained for 20 min with EtdBr (10 µg/mL in 0.5 TBE buffer) solution and the result documented using UV excitation.

linear salmon sperm DNA = experiment: Ethidium bromide saturation assay; format: binding
Protocol: The interaction of the complexes with linear DNA was assessed using the EtdBr assay. Ethidium bromide intercalates into DNA enhancing its fluorescence, while intercalation is hindered by alterations of the DNA structure e.g., by small molecules interfering with DNA [17]. In wells of a 96-well black flat bottom microtiter plates a solution of 1 µg linear salmon sperm DNA (ThermoFisher) in TE buffer (10 mM Tris–Cl, 1 mM EDTA, pH 8.0) was treated with concentration series (final concentrations; 25 µM, 50 µM, 75 µM and 100 µM) of the compounds, a corresponding amount of DMSO was used as a control (0 µM). After an incubation period of 2 h at 37 °C, 100 µL per well of ethidium bromide solution (10 µg/mL in TE buffer) was added and the plate was incubated for 5 min in the dark. Background samples were prepared analogously but without DNA addition. EtdBr–DNA adduct fluorescence was monitored at an excitation wavelength of 535 nm and an emission wavelength of 595 nm. After background subtraction, changes in fluorescence intensity were calculated in relation to control (set to 100%). Means and SD were calculated from at least three independent experiments.

518A2 melanoma cells [9] = experiment: Comet assay; format: cell-based, human; settings: 518A2 cells, 3.3 µM and 33 µM
Protocol: 518A2 melanoma cells were seeded at a concentration of 0.03 × 10^6 cells/mL and a volume of 2 mL seeded in 6-well plates and incubated overnight (37 °C, 95% humidity, 5% CO2). In addition, slides were coated with 1.5% agarose and allowed to harden before being stored in a moist place until the next day. On the second day, a 100-fold substance pre-dilution was added to the cells followed by a further incubation of 3–5 h. The selected concentration range was based on Mendonça et al.. Subsequently, the cells were harvested with trypsin and the cell number was adjusted to 0.02 × 10^6 cells/mL. 0.5% agarose solution was prepared and tempered to a maximum of 50 °C. After mixing 0.4 mL of cell suspension with 1.2 mL of tempered agarose, 200 µL was pipetted onto each of the previously coated slides. After these had hardened, a one-hour incubation followed at 4 °C in lysis buffer. The samples were then electrophoresed at 11 V for 20 min and then incubated for 15 min in neutralization buffer. Finally, the DNA was stained with 30 µL each of 1% ethidium bromide for 30 min, before the slides were washed with PBS for subsequent documentation under a fluorescent microscope with UV excitation (Zeiss Axiovert 135, Ex/Em 300 nm/605 nm).

Row | SMILES | Intracellular ROS level (518A2 melanoma cells [1]) | IC50 [2] [µM] | IC50 [3] [µM] | IC50 [4] [µM] | IC50 (518A2 melanoma cells [5]) [µM] | IC50 [6] [µM] | Effect on cell migration (scratch closure) (518A2 melanoma cells [7]) | DNA interaction (EMSA) [8] | DNA interaction (ethidium bromide saturation) (linear salmon sperm DNA) | DNA damage (comet assay) (518A2 melanoma cells [9])
1 | CC(=O)OC[C@H]1O[C@@H]([S-])[C@H](OC(C)=O)[C@@H](OC(C)=O)[C@@H]1OC(C)=O.CCP(CC)CC.[Au+] [Auranofin, auranofin] | highest ROS levels | 11.9 ± 0.4 | 5 ± 0.2 | 2.6 ± 0.4 | 1.8 ± 0.03 | 14 ± 1 | – | – | – | –
2 | OC[C@H]1O[C@@H](n2cnc3c([S][Au][PH](c4ccccc4)(c4ccccc4)c4ccccc4)ncnc32)[C@H](O)[C@@H]1O [Complex 5, (1,7-Dihydro-6H-purine-9-β-D-ribofuranosyl-6-thiolato) (triphenylphosphane) gold(I)] | – | – | – | – | – | – | retarded the closure of the scratch | failed to reveal any positive effects | failed to reveal any positive effects | led to DNA damage
3 | Nc1nc([S][Au][PH](c2ccccc2)(c2ccccc2)c2ccccc2)c2ncn([C@@H]3O[C@H](CO)[C@@H](O)[C@H]3O)c2n1 [Complex 6, (2-Amino-1,7-dihydro-6H-purine-9-β-D-ribofuranosyl-6-thiolato) (triphenylphosphane) gold(I)] | – | – | – | – | – | – | even accelerated it | – | – | –
